# Results as given in patent US20250241901A1, “ACTIVATION OF MNRR1 / CHCHD2 AS A THERAPEUTIC TARGET FOR MITOCHONDRIA ASSOCIATED DISORDERS” (Wayne State University, priority 2024, published 2025).
# What was measured:
# [1] = tested on: E. coli-induced placental inflammation; test: E. coli-induced placental inflammation model of preterm birth; type: in vivo; settings: same dosage as in LPS model
# From the text: Using the E. coli-induced placental inflammation model and methods similar to those described in Spencer et al. (PLoS One, 16(12): e0260370, 2021 doi: 10.1371/journal.pone.0260370), nitazoxanide therapy will be tested using the same dosage as above and in Purandare et al. (Placenta 140:66-71, 8 Jul. 2023; Purandare et al., bioRxiv, Feb. 1, 2023).
# [2] = single dose of 4 gm, adult humans; cited from earlier work
# [3] = tested on: MELAS patient fibroblasts; test: Mitophagy and mitochondrial biogenesis markers in MELAS patient fibroblasts (immunoblot); type: cell-based, human; settings: fibroblasts from three MELAS patients, 10 μM, 48 h
# Protocol: FIGS. 8A-8D: MNRR1 activation using tizoxanide enhances mitochondrial function, mitophagy, and protects from LPS-induced inflammation in MELAS patient fibroblasts. FIG. 8A: Equal amounts of lysates from MELAS patient fibroblast (MF 1, 2, or 3) lysates treated with vehicle (DMSO) or tizoxanide (10 μM) for 48 h were separated on an SDS-PAGE gel and probed for LC3B, PGC1a, MNRR1, MTCO2, TOM20, and phospho-ubiquitin (S65) levels. GAPDH orTubulin was probed as a loading control. FIG. 8B: Oxygen consumption measured from MELAS patient fibroblasts treated with vehicle (DMSO) or tizoxanide (10 μM) for 48 h (n=4 biological replicates, mean±SE). FIG. 8C: Mitochondrial ATP rate measured in MELAS patient fibroblasts treated with vehicle (DMSO) or tizoxanide (10 μM) for 48 h (n=4 biological replicates, mean±SE). […]
# (§1) Immunoblotting: Immunoblotting was performed as described previously. […] The clear supernatants were transferred to new tubes and quantified using the Bradford reagent with BSA as standard (BioRad, Hercules. CA). […] For detection after immunoblotting, the SuperSignal™ West Pico PLUS substrate (ThermoFisher, Waltham, MA) was used to generate chemiluminescence signal, which was detected with X-Ray film (RadTech, Vassar, MI).
# [4] = tested on: MELAS cybrid cells; test: Mitophagy markers in MELAS cybrid cells (immunoblot); type: cell-based, human; settings: 10 μM, 48 h
# Protocol: FIGS. 7A-7E: MNRR1 activation by tizoxanide enhances mtDNA biogenesis and mitophagy to shift heteroplasmy in MELAS cells. FIG. 7A: Oxygen consumption measured from MELAS cybrid cells treated with vehicle (DMSO) or tizoxanide (10 μM) for 48 h (n=4 biological replicates, error bars represent SE). FIG. 7B: Haelll restriction enzyme digestion of a PCR-amplified fragment of mtDNA harboring the m.3243A>G mutation from DW7 cells treated with vehicle (DMSO) or tizoxanide (10 μM) for 144 h. […] FIG. 7C: Genes identified using qPCR of MELAS cybrid cells stably overexpressing EV or MNRR1. FIG. 7D: MtDNA levels are shown relative to nuclear DNA (nDNA) (GAPDH) (n=5 biological replicates, error bars represent SE). FIG. 7E: Equal amounts of MELAS cybrid cell lysates, treated with vehicle (DMSO) or tizoxanide (10 μM) for 48 h, were separated on an SDS-PAGE gel and probed for PGC1a, PINK1, LC3 A/B, MNRR1, and Tubulin. […]
# as §1
SMILES,reducing or preventing pre-term birth [1],adverse effects [2],"mitochondrial biogenesis (PGC1α, MTCO2, TOM20 levels) [3]",mitophagy (LCB and pSer-65 ubiquitin levels) [3],"mitophagy (PINK1, LC3A, LC3B, pSer-65 ubiquitin) [4]"
"CC(=O)Oc1ccccc1C(=O)Nc1ncc([N+](=O)[O-])s1 [nitazoxanide, Nitazoxanide]",effective in reducing or preventing pre-term birth,did not result in any adverse effects,–,–,–
"O=C(Nc1ncc([N+](=O)[O-])s1)c1ccccc1O [tizoxanide, Tizoxanide]",–,–,enhances,enhances,Increased mitophagy
